Read-outs that look alike come from different tables or passages of the source.
Assays:
[1] = tested on: patients with hypermenorrhea and/or patients with hypermenorrhea-associated gynecologic diseases (iron-deficiency anemia patients); conditions: for Hb change, End of administration, Mean: change from baseline; for Williams test, Mean of change amount from the baseline at the end of administration, JTT-751-placebo: difference to placebo
Method: (§1) This test was a three-stage safety and efficacy clinical trial at multi-facilities. The first stage was a pre-observation period (Day −40 to Day −1), the second stage was an administration period (Day 1 to Day 48) (efficacy and safety evaluation period), and the third stage was a post-observation period (Day 49 to Day 63) (efficacy and safety evaluation period). The safety evaluation and efficacy evaluation were performed by multi-facility collaboration, placebo control, random allocation, double-blind trial, and parallel group comparison test.
(§2) The administration period of the trial drug is seven weeks which starts from the next day of the Week 0 visit to the day before the Week 7 visit, provided that the trial drug is not taken on the scheduled Week 3 visit.
Amount of change in blood hemoglobin value (Hb) from Week 0 at the end of administration
The mean of each administration group is used as a placebo group (μ1), a 250 mg group (μ2), a 500 mg group (μ3), a 1000 mg group (μ4), a 1500 mg group (μ5).
(§3) The blood hemoglobin value (Hb), the serum iron level, the serum ferritin value, the total iron-binding capacity (TIBC) and the transferrin saturation rate (TSAT), and the mean corpuscular volume (MCV) were each examined at the observation start date, Week 0, Week 3, Week 7, the end of administration and the consultation at nine weeks after Week 0; the hepcidin concentration (Hepcidin 25) and the serum soluble transferrin receptor concentration (sTfR) were each examined on Week 0, Week 3 and Week 7 and at the end of administration; and the C-terminal FGF23 value (cFGF23) and the intact FGF23 value (iFGF23) were each examined on Week 0 and Week 7 and at the end of administration.

[2] = tested on: patients with hypermenorrhea and/or patients with hypermenorrhea-associated gynecologic diseases (iron-deficiency anemia patients); experiment: Phase II clinical trial of JTT-751: mean corpuscular volume value (MCV); assay type: in vivo, human
Method: as §1
(1) Japanese patients who are 20 or more and less than 65 years old at the time of agreement and can visit an outpatient clinic (2) Patients who have an Hb value (measured using HemoCue® Hb 201 DM analyzer in the institute of clinical practice) of 7.0 g/dL or more and less than 11.0 g/dL on both the observation start date and Week 0, and the difference between the two days is 1.0 g/dL or less (3) Patients with a TIBC of 360 μg/dL or more or a serum ferritin value of less than 12 ng/mL on the observation start date
as §2
(2) Subsidiary evaluation items 1) Erythrocyte-related examination values and amount of change from Week 0 at each observation date 2) Iron-related test values and amount of change from Week 0 at each observation date 3) Achievement rate of target Hb value (female; 12.0 g/dL or more, male; 13.0 g/dL or more) at each observation date 4) Achievement rate of 1.0 g/dL or more and achievement rate of 2.0 g/dL or more in Hb value improvement from Week 0 at each observation date 5) Average daily change of Hb value from Week 0 to each observation date
as §3

[3] = 9 weeks after Week 0, JTT-751 250 mg group
[4] = 9 weeks after Week 0, JTT-751 500 mg group
[5] = 9 weeks after Week 0, JTT-751 1000 mg group
[6] = 9 weeks after Week 0, JTT-751 1500 mg group
[7] = Administration start date, JTT-751 250 mg group
[8] = Administration start date, JTT-751 500 mg group
[9] = Administration start date, JTT-751 1000 mg group
[10] = Administration start date, JTT-751 1500 mg group
[11] = End of administration, JTT-751 250 mg group
[12] = End of administration, JTT-751 500 mg group
[13] = End of administration, JTT-751 1000 mg group
[14] = End of administration, JTT-751 1500 mg group
[15] = Week 0 (baseline), JTT-751 250 mg group
[16] = Week 0 (baseline), JTT-751 500 mg group
[17] = Week 0 (baseline), JTT-751 1000 mg group
[18] = Week 0 (baseline), JTT-751 1500 mg group

## Ferric citrate [JTT-751]
[1]; 250 mg/day
  Hb measured value, Base line, Mean: 9.47 g/dL
  Hb measured value, End of administration, Mean: 11.72 g/dL
  Williams test, Mean of change amount from the baseline at the end of administration, Mean: 2.25 g/dL
  Hb change, End of administration, Mean: 2.25 g/dL
  Williams test, Mean of change amount from the baseline at the end of administration, JTT-751-placebo: 2.50 g/dL
[1]; 250 mg/day, 9 weeks after Week 0
  Hb, Median: 11.60 g/dL
[1]; 250 mg/day, End of administration
  Hb, Median: 11.80 g/dL
[1]; 250 mg/day, Observation start date (before administration)
  Hb, Median: 9.55 g/dL
[1]; 250 mg/day, Week 0 (baseline)
  Hb, Median: 9.80 g/dL
[1]; 250 mg/day, Week 3
  Hb, Median: 10.75 g/dL
[1]; 250 mg/day, Week 7
  Hb, Median: 11.80 g/dL
[1]; 500 mg/day
  Hb measured value, Base line, Mean: 8.98 g/dL
  Hb measured value, End of administration, Mean: 11.71 g/dL
  Williams test, Mean of change amount from the baseline at the end of administration, Mean: 2.73 g/dL
  Hb change, End of administration, Mean: 2.73 g/dL
  Williams test, Mean of change amount from the baseline at the end of administration, JTT-751-placebo: 2.98 g/dL
[1]; 500 mg/day, 9 weeks after Week 0
  Hb, Median: 11.70 g/dL
[1]; 500 mg/day, End of administration
  Hb, Median: 11.90 g/dL
[1]; 500 mg/day, Observation start date (before administration)
  Hb, Median: 9.30 g/dL
[1]; 500 mg/day, Week 0 (baseline)
  Hb, Median: 8.95 g/dL
[1]; 500 mg/day, Week 3
  Hb, Median: 10.10 g/dL
[1]; 500 mg/day, Week 7
  Hb, Median: 11.90 g/dL
[1]; 1000 mg/day
  Hb measured value, Base line, Mean: 9.66 g/dL
  Hb measured value, End of administration, Mean: 12.72 g/dL
  Williams test, Mean of change amount from the baseline at the end of administration, Mean: 3.05 g/dL
  Hb change, End of administration, Mean: 3.05 g/dL
  Williams test, Mean of change amount from the baseline at the end of administration, JTT-751-placebo: 3.30 g/dL
[1]; 1000 mg/day, 9 weeks after Week 0
  Hb, Median: 12.70 g/dL
[1]; 1000 mg/day, End of administration
  Hb, Median: 12.90 g/dL
[1]; 1000 mg/day, Observation start date (before administration)
  Hb, Median: 9.90 g/dL
[1]; 1000 mg/day, Week 0 (baseline)
  Hb, Median: 9.80 g/dL
[1]; 1000 mg/day, Week 3
  Hb, Median: 11.80 g/dL
[1]; 1000 mg/day, Week 7
  Hb, Median: 12.90 g/dL
[1]; 1500 mg/day
  Hb measured value, Base line, Mean: 9.38 g/dL
  Hb measured value, End of administration, Mean: 12.75 g/dL
  Williams test, Mean of change amount from the baseline at the end of administration, Mean: 3.37 g/dL
  Hb change, End of administration, Mean: 3.37 g/dL
  Williams test, Mean of change amount from the baseline at the end of administration, JTT-751-placebo: 3.62 g/dL
[1]; 1500 mg/day, 9 weeks after Week 0
  Hb, Median: 12.70 g/dL
[1]; 1500 mg/day, End of administration
  Hb, Median: 13.00 g/dL
[1]; 1500 mg/day, Observation start date (before administration)
  Hb, Median: 9.40 g/dL
[1]; 1500 mg/day, Week 0 (baseline)
  Hb, Median: 9.40 g/dL
[1]; 1500 mg/day, Week 3
  Hb, Median: 11.60 g/dL
[1]; 1500 mg/day, Week 7
  Hb, Median: 13.00 g/dL
[1]; 250-1500 mg/day
  blood hemoglobin value, dose dependence: increases along with the dose increase
[1]; Week 0, Week 3 and Week 7
  blood hemoglobin value, time-dependent change: increased along with the continuous administration
[1]; nine weeks after Week 0 (two weeks after completion of administration)
  blood hemoglobin value after completion of administration: did not decrease
[1]; regardless of the dose amount (250-1500 mg/day), end of administration
  blood hemoglobin value compared to the placebo administration group: significantly increase
[2]; [3]
  MCV, Mean: 78.9 fL
  MCV, Median: 79.0 fL
[2]; [4]
  MCV, Mean: 80.8 fL
  MCV, Median: 81.0 fL
[2]; [5]
  MCV, Mean: 83.9 fL
  MCV, Median: 84.0 fL
[2]; [6]
  MCV, Mean: 82.4 fL
  MCV, Median: 82.5 fL
[2]; [7]
  MCV, Mean: 71.5 fL
  MCV, Median: 73.0 fL
[2]; [8]
  MCV, Mean: 71.9 fL
  MCV, Median: 72.0 fL
[2]; [9]
  MCV, Mean: 72.5 fL
  MCV, Median: 71.0 fL
[2]; [10]
  MCV, Mean: 71.0 fL
  MCV, Median: 69.0 fL
[2]; [11]
  MCV, Mean: 78.4 fL
  MCV, Median: 79.5 fL
[2]; [12]
  MCV, Mean: 79.8 fL
  MCV, Median: 81.0 fL
[2]; [13]
  MCV, Mean: 82.5 fL
  MCV, Median: 82.0 fL
[2]; [14]
  MCV, Mean: 81.4 fL
  MCV, Median: 81.0 fL
[2]; [15]
  MCV, Mean: 70.8 fL
  MCV, Median: 72.0 fL
[2]; [16]
  MCV, Mean: 70.9 fL
  MCV, Median: 70.5 fL
[2]; [17]
  MCV, Mean: 72.4 fL
  MCV, Median: 70.0 fL
[2]; [18]
  MCV, Mean: 70.6 fL
  MCV, Median: 68.0 fL
[2]; Week 0, Week 3 and Week 7
  mean corpuscular volume value (MCV), time-dependent change: increased along with the continuous administration
[2]; Week 3, JTT-751 250 mg group
  MCV, Mean: 73.9 fL
  MCV, Median: 74.0 fL
[2]; Week 3, JTT-751 500 mg group
  MCV, Mean: 75.3 fL
  MCV, Median: 75.0 fL
[2]; Week 3, JTT-751 1000 mg group
  MCV, Mean: 78.3 fL
  MCV, Median: 77.0 fL
[2]; Week 3, JTT-751 1500 mg group
  MCV, Mean: 76.7 fL
  MCV, Median: 77.0 fL
[2]; Week 7, JTT-751 250 mg group
  MCV, Mean: 78.4 fL
  MCV, Median: 79.5 fL
[2]; Week 7, JTT-751 500 mg group
  MCV, Mean: 79.8 fL
  MCV, Median: 81.0 fL
[2]; Week 7, JTT-751 1000 mg group
  MCV, Mean: 82.5 fL
  MCV, Median: 82.0 fL
[2]; Week 7, JTT-751 1500 mg group
  MCV, Mean: 81.4 fL
  MCV, Median: 81.0 fL
[2]; end of administration
  mean corpuscular volume value (MCV) at the end of administration: a value around the normal value

Reference: patent publication US20210085711A1 (Japan Tobacco Inc., priority 2017, published 2021)
